From patent publication US20260317367A1, “SALTS INCLUDING CRYSTALLINE SALTS OF 25-HYDROXY-CHOLEST-5-EN-3-SULFATE AND METHODS FOR PREPARING SAME” (Durect Corporation, priority 2022, published 2026)
“Also recorded” adds a separate entry of the source. Structures can show the parent of a compound that is named as a salt.

Columns and labels:
Type in all cases: physicochemical
[1] = Solubility of 25HC3S salts after one day at room temperature (HPLC, as free acid); conditions: one day
Experimental: These fluids were prepared per the instruction listed by Biorelevant (Biorelevant.com). Each buffer concentrate was diluted with water and mixed well. FaSSIF, FeSSIF, FaSSGF powder was added to each buffer and mixed to completely dissolve the powder. Buffers were stored at room temperature and used within 48 hours of preparation.
(§1) 25HC3S salts were weighed in 8 mL or 4 mL glass vials with Teflon coated screw caps. Aliquots of each solvent were added to each sample and vortexed for about one minute until excess solid remained. Samples were placed on shaker at room temperature with 210 motion per minute shaking.
(§2) After one day, samples were pulled and checked if excess solid was present. About 1.5 mL aliquot of each sample was centrifuged at 12000 rpm for 12 to 15 minutes. […] Aliquots of the top clear solution of each centrifuged sample in MeOH, EtOH, IPA and ACN were diluted with diluent (water:MeOH 95:5) and assayed by HPLC. Samples of the salts in aqueous media were assayed by HPLC without dilution.
All solubility sample solutions of 25HC3S salts were determined using HPLC. A linear standard curve was constructed using standards with concentration between 11 μg/mL to 1.5 mg/mL as free acid forcing the curve to origin. Solubilities are reported as mg/mL free acid 25HC3S. Detection limit (LOD) of the HPLC method was calculated as 0.0007 mg/mL.

[2] = Final pH of the solubility sample solutions in aqueous media
Experimental: as §1, §2
5.1 Solubility of 25HC3S Salts in Aqueous Media

[3] = Solid-state chemical stability of 25HC3S salts at 2-8° C., 60° C. and 80° C. (HPLC assay and degradation products)
Experimental: (§3) Approximately 25 mg of each crystalline 25HC3S salt was added to 20 mL glass vials and each powder weight was recorded. Four vials were prepared for each salt and stored at 2-8° C. or 80° C. according to Table B2. The samples were scheduled initially to pull for testing at 3 weeks and 6 weeks' time points.
(§4) For those […] salts, the remaining vials stored at 2-8° C. for 3 weeks were allocated for storage at 60° C. for 1 week. Additional stability data was generated according to Table B3.
Based on the molecular weights, and expected UV response factors of each salt used in this study, the expected analytical sample concentrations were within the range of the 25HC3S sodium reference standards (0.75 mg/mL to 1.25 mg/mL as 25HC3S sodium salt). However, due to the lower-than-expected purity of the 25HC3S benzathine salt, an additional standard was prepared at 0.125 mg/mL as 25HC3S sodium salt.
Samples were prepared by pipetting 20 mL of 100% methanol into each vial and mixing well, with sonication and vortexing to fully dissolve the samples for HPLC analysis.
Samples were prepared by pipetting 20 mL of 100% methanol into each vial followed by two rounds of sonication for 30 minutes, with 30 seconds of vortexing before and after each round. Sample aliquots were then centrifuged at 10,000 RPM for 10 minutes and the supernatant collected for HPLC analysis.
Samples were prepared by pipetting 20 mL of 100% methanol into each vial, followed by 5 seconds of vortexing. The undissolved powder in methanol was quantitatively transferred into 200 mL volumetric flasks. The sample vials were rinsed 3 times with methanol, with each rinsate transferred to the 200 mL volumetric flasks. The volumetric flasks were filled to about 90% volume and sonicated for 10 minutes to fully dissolve the powder. The flasks were filled to volume with methanol, mixed well and aliquots collected for HPLC analysis.
HPLC analysis was performed.

[4] = Appearance (color, clumping, flowability) of stored 25HC3S salts; conditions: for Appearance: listed as 25HC3S zinc
Experimental: as §3, §4
For appearance, each unopened vial was visually examined for color, clumping, and flowability.

[5] = Angle of repose of 25HC3S salts; conditions: listed as 25HC3S zinc
Experimental: Angle of repose is measured as follows. Powder is poured from a funnel onto a flat surface until a cone of powder is created. The angle of repose is calculated according to the following equation: […]
Table C1, from USP<1174> Powder Flow, describes the powder flow properties correlating to the angles of repose.
The lower the angle of repose, the more flowable is a material. Powder with an angle of repose between 25° to 30° will show excellent flow through a hopper, feed frame, die table and die bore smoothly. From 41° to greater than 66°, you may experience powder flow difficulties like rat-holing or bridging within the hopper.
The angle of repose was determined by pouring approximately 2 grams of a 25HC3S salt through a 7 mm inner diameter plastic tube into the center of a 21.14 mm diameter rubber O-ring, resulting in the formation of a powder cone of fixed diameter. The height of the cone was estimated with calipers.

[6] = Overall rank order of powder flowability (angle of repose and Hausner ratio)
Text: Table C5 was generated by adding the relative rank order of the 25HC3S salts for angle of repose and Hausner ratio results, and creating an Over All Rank Order of the salts powder flowability. The salts with the lower overall rank order score had better powder flowability.

[7] = 80° C., 3 weeks, listed as 25HC3S Zinc
[8] = rank, lower is better flow, listed as 25HC3S zinc

- Solubility in 5% Dextrose ([1]; 5% dextrose, room temperature, as free acid, ND = not detected, detection limit 0.7 μg/mL, 1440 min, listed as 25HC3S zinc): 13 µg/mL
- Solubility in ethanol (in words) ([1]; EtOH, room temperature, listed as crystalline 25HC3S zinc): relatively high solubility
- Solubility in FaSSGF (in words) ([1]; FaSSGF, room temperature, listed as crystalline 25HC3S zinc): low solubility
- Solubility in FaSSIF ([1]; FaSSIF, room temperature, as free acid, 1440 min, listed as 25HC3S zinc): 133 µg/mL
- Solubility in FaSSGF ([1]; Fasted State Simulated Gastric Fluid, pH 1.6, room temperature, as free acid, LOD 0.0007 mg/mL): no solubilized drug was detected
- Solubility in FeSSIF ([1]; FeSSIF, room temperature, as free acid, 1440 min, listed as 25HC3S zinc): 673 µg/mL
- Solubility in ACN ([1]; acetonitrile, room temperature, as free acid, 1440 min, listed as 25HC3S zinc): 100 µg/mL
- Solubility in EtOH ([1]; ethanol, room temperature, as free acid, ≥ = did not reach saturation, 1440 min, listed as 25HC3S zinc): 31200 µg/mL
- Solubility in IPA ([1]; isopropyl alcohol, room temperature, as free acid, 1440 min, listed as 25HC3S zinc): 3500 µg/mL
- Solubility in MeOH ([1]; methanol, room temperature, as free acid, ≥ = did not reach saturation, 1440 min, listed as 25HC3S zinc): 39500 µg/mL
- Solubility in saline / 0.9% sodium chloride (in words) ([1]; saline, room temperature, listed as crystalline 25HC3S zinc): low solubility
- Solubility in H2O ([1]; water, room temperature, as free acid, ND = not detected, detection limit 0.7 μg/mL, 1440 min, listed as 25HC3S zinc): 6 µg/mL
- pH of the solubility sample, 0.9% Sodium Chloride ([2]; 0.9% sodium chloride (blank 5.8), listed as 25HC3S zinc): 6.4
- pH of solubility sample solution in 0.9% sodium chloride ([2]; 0.9% sodium chloride (medium pH 5.8)): 6.4
- pH of the solubility sample, 5% Dextrose ([2]; 5% dextrose (blank 4.7), listed as 25HC3S zinc): 7.1
- pH of the solubility sample, FaSSGF ([2]; FaSSGF (blank 1.5, 1.6)): 1.6
- pH of the solubility sample, FaSSIF ([2]; FaSSIF (blank 6.5, 6.5), listed as 25HC3S zinc): 6.5
- pH of the solubility sample, FeSSIF ([2]; FeSSIF (blank 4.9, 5.0)): 5.0
- pH of solubility sample solution in water ([2]; water): 7.4
- pH of the solubility sample, Water ([2]; water (blank 6.3), listed as 25HC3S zinc): 7.4
- Assay ([3]; 2-8° C., 3 wk, 30240 min, listed as 25HC3S zinc): 92.6 % w/w
- % Impurities, Total ([3]; 2-8° C., 3 wk, ND = Not Detected, listed as 25HC3S zinc): 0.6%
- Overall physical and chemical stability (in words) ([3]; 2-8° C., 60° C., 80° C.): least physically and chemically stable
- Overall physical and chemical stability (in words) ([3]; 2-8° C., 60° C., 80° C., listed as zinc): least stable
- % Impurities, 25-HC ([3]; 25-Hydroxy-Cholesterol, 2-8° C., 3 wk, ND = Not Detected, listed as 25HC3S zinc): 0.2%
- Physical and chemical solid-state stability (comments) ([3]; 60° C., 1 week, listed as 25HC3S Zinc): Totally decomposed after 1 weck at 60 °C
- Assay ([3]; 60° C., 1 wk (after 3 weeks at 2-8° C.), 10080 min, listed as 25HC3S zinc, 10080 min): 0.0 % w/w
- % Recovery of 2-8° C./3 wk vs 60° C./1 wk ([3]; 60° C., 1 wk, 10080 min, listed as 25HC3S zinc): 0.0%
- % Impurities, Total ([3]; 60° C., 1 wk, ND = Not Detected, listed as 25HC3S zinc): 100.0%
- % Recovery ([3]; 80° C., 3 wk, vs 2-8° C., 30240 min, listed as 25HC3S zinc, 30240 min): 0.0%
- Assay ([3]; 80° C., 3 wk, 30240 min, listed as 25HC3S zinc): 0.0 % w/w
- Stability after 1 week at 60° C. (in words) ([3]; solid state, 60° C., 1 week (after 3 weeks at 2-8° C.)): totally decomposed
- Stability after 3 weeks at 80° C. (in words) ([3]; solid state, 80° C., 3 weeks): totally decomposed
- Appearance ([4]; 2-8° C., 3 wk): White, free flowing powder with clumping
- Appearance ([4]; 60° C., 1 wk (after 3 weeks at 2-8° C.)): Light brown, melted material stuck to
- Appearance after 3 weeks at 80° C. ([4]; 80° C., 3 weeks): completely burned
- Appearance ([4]; 80° C., 3 wk): Dark brown, melted material stuck to
- Flow Property per USP<1174> Powder Flow ([5]; classification by angle of repose): Passable - may hang up
- Angle of Repose [5]: 42.4 degrees
- Angle of Repose, Rounded Whole Number ([5]; rounded whole number): 42 degrees
- Powder flowability, overall (in words) ([6]; angle of repose and compressibility index/Hausner ratio combined, listed as zinc): next group
- Angle of Repose Rank Order [6, 8]: 10
- Hausner Ratio Rank Order [6, 8]: 5
- Overall Rank Order (Total Score) ([6]; sum of both ranks, lower is better flow, listed as 25HC3S zinc): 15
Structure (SMILES): CC(CCCC(C)(C)O)C1CCC2C3CC=C4CC(OS(=O)(=O)O)CCC4(C)C3CCC12C (stereo not shown) [Salt #3]
- Physical and chemical solid-state stability (comments) [3, 7]: Totally decomposed after 1 weck at 60 °C and after 3 weeks at 80 °C
- dissolution of decomposed samples in diluent / degradants observed (comments) [3, 7]: decomposed samples at 3-weeks at 80 °C did not dissolve in the diluent,; also recorded: therefore, no degradants were observed
